Reference: the OligoGym collection
Oligonucleotides are written 5' to 3', each unit as a sugar letter and its base; * is a phosphorothioate linkage, no mark a phosphodiester; rarer units and linkages stand in square brackets, end groups in braces. Plain capitals give the bases only. d = 2'-deoxy (DNA); r = 2'-OH (RNA)

Target: UBE2H
Assay: reporter assay of Huesken 2005
Conditions: siRNA
Also: test concentration or dose not given here.

Substance | normalised inhibition (eCFP-eYFP dual reporter) [%]
sense rArArArUrCrUrCrCrArUrCrUrArUrArGrGrArUdTdT / antisense rArUrCrCrUrArUrArGrArUrGrGrArGrArUrUrUdGdA | 96.4
sense rArArCrArCrCrArUrArUrGrArArGrGrCrGrGrAdTdT / antisense rUrCrCrGrCrCrUrUrCrArUrArUrGrGrUrGrUrUdCdC | 67.8
sense rArArCrCrCrCrArUrArGrArUrCrCrUrCrUrCrAdTdT / antisense rUrGrArGrArGrGrArUrCrUrArUrGrGrGrGrUrUdAdG | 49.4
sense rArArGrUrUrArGrArGrUrGrGrArCrCrUrArCrCdTdT / antisense rGrGrUrArGrGrUrCrCrArCrUrCrUrArArCrUrUdTdC | 64.2
sense rArArUrArUrArUrUrUrGrArGrUrCrCrUrUrCrCdTdT / antisense rGrGrArArGrGrArCrUrCrArArArUrArUrArUrUdGdG | 41.6
sense rArCrArGrCrUrCrUrCrUrArUrGrArUrCrUrUrAdTdT / antisense rUrArArGrArUrCrArUrArGrArGrArGrCrUrGrUdCdC | 95.8
sense rArCrGrCrCrArCrGrGrArGrGrArGrGrCrGrCrUdTdT / antisense rArGrCrGrCrCrUrCrCrUrCrCrGrUrGrGrCrGrUdAdT | 71.9
sense rArCrUrUrGrGrArCrArGrCrUrCrUrCrUrArUrGdTdT / antisense rCrArUrArGrArGrArGrCrUrGrUrCrCrArArGrUdTdT | 86
sense rArGrArGrGrGrUrArCrCrGrGrGrGrArCrArGrCdTdT / antisense rGrCrUrGrUrCrCrCrCrGrGrUrArCrCrCrUrCrUdTdC | 65
sense rArGrGrArArCrUrGrUrGrUrGrUrCrUrArGrArUdTdT / antisense rArUrCrUrArGrArCrArCrArCrArGrUrUrCrCrUdGdA | 100
sense rArGrGrGrUrArCrCrGrGrGrGrArCrArGrCrUrCdTdT / antisense rGrArGrCrUrGrUrCrCrCrCrGrGrUrArCrCrCrUdCdT | 77.2
sense rArGrGrUrUrArCrGrArUrCrCrUrGrGrGrArGrGdTdT / antisense rCrCrUrCrCrCrArGrGrArUrCrGrUrArArCrCrUdCdA | 84.1
sense rArGrUrGrArArGrUrUrUrUrArUrGrGrArCrCrAdTdT / antisense rUrGrGrUrCrCrArUrArArArArCrUrUrCrArCrUdAdC | 95.5
sense rArGrUrGrGrArCrCrUrArCrCrUrGrArUrArArAdTdT / antisense rUrUrUrArUrCrArGrGrUrArGrGrUrCrCrArCrUdCdT | 108
sense rArUrArCrCrCrUrUrUrCrArArArUrCrUrCrCrAdTdT / antisense rUrGrGrArGrArUrUrUrGrArArArGrGrGrUrArUdTdT | 99.2
sense rArUrArGrGrArUrUrCrArUrGrArArUrArArArAdTdT / antisense rUrUrUrUrArUrUrCrArUrGrArArUrCrCrUrArUdAdG | 106
sense rArUrCrGrArGrArGrUrArArArCrArUrGrArGrGdTdT / antisense rCrCrUrCrArUrGrUrUrUrArCrUrCrUrCrGrArUdGdA | 71.1
sense rArUrCrUrArUrArGrGrArUrUrCrArUrGrArArUdTdT / antisense rArUrUrCrArUrGrArArUrCrCrUrArUrArGrArUdGdG | 95.3
sense rArUrGrArGrGrUrUrArCrGrArUrCrCrUrGrGrGdTdT / antisense rCrCrCrArGrGrArUrCrGrUrArArCrCrUrCrArUdGdT | 77.7

Substance | normalised inhibition (eCFP-eYFP dual reporter) [%]
sense rArUrGrGrArCrCrArCrArArGrGrArArCrArCrCdTdT / antisense rGrGrUrGrUrUrCrCrUrUrGrUrGrGrUrCrCrArUdAdA | 34
sense rArUrGrGrUrGrArCrGrCrUrGrCrArGrCrCrArUdTdT / antisense rArUrGrGrCrUrGrCrArGrCrGrUrCrArCrCrArUdTdG | 86.6
sense rArUrUrGrGrCrCrUrArUrCrCrUrArArCrCrCrCdTdT / antisense rGrGrGrGrUrUrArGrGrArUrArGrGrCrCrArArUdAdA | 36.2
sense rArUrUrUrGrArGrUrCrCrUrUrCrCrUrGrCrCrUdTdT / antisense rArGrGrCrArGrGrArArGrGrArCrUrCrArArArUdAdT | 48.2
sense rCrArArGrGrArArCrArCrCrArUrArUrGrArArGdTdT / antisense rCrUrUrCrArUrArUrGrGrUrGrUrUrCrCrUrUrGdTdG | 99.5
sense rCrArArUrArUrArUrUrUrGrArGrUrCrCrUrUrCdTdT / antisense rGrArArGrGrArCrUrCrArArArUrArUrArUrUrGdGdT | 84.2
sense rCrArGrArArArArUrUrArArArGrArGrUrArCrAdTdT / antisense rUrGrUrArCrUrCrUrUrUrArArUrUrUrUrCrUrGdCdT | 78.6
sense rCrArGrArArGrArArUrArCrArArGrCrArGrArAdTdT / antisense rUrUrCrUrGrCrUrUrGrUrArUrUrCrUrUrCrUrGdGdT | 77.7
sense rCrArGrCrCrArUrGrUrArCrCrUrCrCrArCrCrGdTdT / antisense rCrGrGrUrGrGrArGrGrUrArCrArUrGrGrCrUrGdCdA | 61.4
sense rCrArGrGrArArGrArGrGrGrUrArCrCrGrGrGrGdTdT / antisense rCrCrCrCrGrGrUrArCrCrCrUrCrUrUrCrCrUrGdTdT | 74.7
sense rCrArUrCrGrArGrArGrUrArArArCrArUrGrArGdTdT / antisense rCrUrCrArUrGrUrUrUrArCrUrCrUrCrGrArUrGdAdG | 70.2
sense rCrArUrGrArArUrArArArArUrUrUrUrCrCrArUdTdT / antisense rArUrGrGrArArArArUrUrUrUrArUrUrCrArUrGdAdA | 64
sense rCrCrArCrCrGrArCrCrArGrArArGrArArUrArCdTdT / antisense rGrUrArUrUrCrUrUrCrUrGrGrUrCrGrGrUrGrGdAdG | 82.5
sense rCrCrArGrArArGrArArUrArCrArArGrCrArGrAdTdT / antisense rUrCrUrGrCrUrUrGrUrArUrUrCrUrUrCrUrGrGdTdC | 104
sense rCrCrArUrArUrGrArArGrGrCrGrGrArGrUrArUdTdT / antisense rArUrArCrUrCrCrGrCrCrUrUrCrArUrArUrGrGdTdG | 102
sense rCrCrGrArCrCrArGrArArGrArArUrArCrArArGdTdT / antisense rCrUrUrGrUrArUrUrCrUrUrCrUrGrGrUrCrGrGdTdG | 86.4
sense rCrCrUrArArCrCrCrCrArUrArGrArUrCrCrUrCdTdT / antisense rGrArGrGrArUrCrUrArUrGrGrGrGrUrUrArGrGdAdT | 66.9
sense rCrGrArGrArGrUrArArArCrArUrGrArGrGrUrUdTdT / antisense rArArCrCrUrCrArUrGrUrUrUrArCrUrCrUrCrGdAdT | 98
